Reference: patent US12012411B2, “Viral replication inhibitors” (Katholieke Universiteit Leuven, priority 2011, dated 2024)

system: not listed separately; assay: in vitro; details: African green monkey

Question: With COc1cccc(NC(C(=O)c2cn(CCN)c3ccccc23)c2ccccc2)c1 (stereo not shown) [CPD-105] as the compound, how does the CC50 read?
Answer: 14 µM

Question: With COc1cccc(NC(C(=O)c2cn(CC(=O)O)c3ccccc23)c2ccccc2)c1 (stereo not shown) [CPD-106] as the compound, how does the CC50 read?
Answer: > 120 µM

Question: With CCOC(=O)Cn1cc(C(=O)C(Nc2cccc(OC)c2)c2ccccc2)c2ccccc21 (stereo not shown) [CPD-113] as the compound, how does the CC50 read?
Answer: > 112 µM

Question: Which CC50 does the source give for COc1cccc(NC(C(=O)c2cn(CCN(C)C)c3ccccc23)c2ccccc2)c1 (stereo not shown) [CPD-114] here?
Answer: 52 µM

same assay, conditions: African green monkey, uninfected quiescent Vero-B cells

Question: With CCOc1cccc(NC(C(=O)c2c[nH]c3ccccc23)c2ccccc2)c1 (stereo not shown) [CPD-003] as the compound, how does the CC50 at 4 days read?
Answer: 13 µM

Question: With O=C(c1c[nH]c2ccccc12)C(Nc1cccc(Cl)c1)c1ccccc1 (stereo not shown) [CPD-006] as the compound, how does the CC50 at 4 days read?
Answer: 6 µM

Question: For O=C(c1c[nH]c2ccccc12)C(Nc1ccc(F)c(F)c1)c1ccccc1 (stereo not shown) [CPD-007], which CC50 at 4 days is on record?
Answer: 5 µM

Question: For O=C(c1c[nH]c2ccccc12)C(Nc1cccc(C(F)(F)F)c1)c1ccccc1 (stereo not shown) [CPD-009], which CC50 at 4 days is on record?
Answer: 4 µM

Question: For COc1cc(NC(C(=O)c2c[nH]c3ccccc23)c2ccccc2)cc(C(F)(F)F)c1 (stereo not shown) [CPD-014], which CC50 at 4 days is on record?
Answer: 8 µM

Question: Which CC50 at 4 days does the source give for COc1cccc(N(C)C(C(=O)c2c[nH]c3ccccc23)c2ccccc2)c1 (stereo not shown) [CPD-018] here?
Answer: 19 µM

Question: Which CC50 at 4 days does the source give for Cc1cc(NC(C(=O)c2c[nH]c3ccccc23)c2ccccc2)no1 (stereo not shown) [CPD-022] here?
Answer: 77 µM

Question: With COc1cccc(NC(C(=O)c2c[nH]c3ccccc23)c2cccs2)c1 (stereo not shown) [CPD-024] as the compound, how does the CC50 at 4 days read?
Answer: 14 µM

Question: For COc1cccc(NC(C(=O)c2c[nH]c3ccccc23)c2nccn2C)c1 (stereo not shown) [CPD-026], which CC50 at 4 days is on record?
Answer: > 138 µM

Question: With COc1cccc(NC(C(=O)c2c[nH]c3ccccc23)c2ncc[nH]2)c1 (stereo not shown) [CPD-028] as the compound, how does the CC50 at 4 days read?
Answer: > 144 µM

Question: Which CC50 at 4 days does the source give for O=C(c1c[nH]c2ccccc12)C(Nc1ccnc(O)c1)c1ccccc1 (stereo not shown) [CPD-031] here?
Answer: > 145 µM

Question: Which CC50 at 4 days does the source give for O=C(c1c[nH]c2ccccc12)C(NCc1ccccn1)c1ccccc1 (stereo not shown) [CPD-032] here?
Answer: > 146 µM

Question: For O=C(c1c[nH]c2ccccc12)C(NCc1cccs1)c1ccccc1 (stereo not shown) [CPD-033], which CC50 at 4 days is on record?
Answer: 71 µM

Question: For O=C(c1c[nH]c2ccccc12)C(NCc1ccco1)c1ccccc1 (stereo not shown) [CPD-034], which CC50 at 4 days is on record?
Answer: > 151 µM

Question: With COc1cccc(NC(C(=O)c2c[nH]c3ccccc23)c2cccc(C#N)c2)c1 (stereo not shown) [CPD-041] as the compound, how does the CC50 at 4 days read?
Answer: 14 µM

Question: With COc1cccc(NC(C(=O)c2c[nH]c3ccccc23)c2cnn(C)c2)c1 (stereo not shown) [CPD-042] as the compound, how does the CC50 at 4 days read?
Answer: > 138 µM

Question: With CCc1cccc(NC(C(=O)c2c[nH]c3ccccc23)c2ccccc2)c1 (stereo not shown) [CPD-046] as the compound, how does the CC50 at 4 days read?
Answer: 17 µM

Question: Which CC50 at 4 days does the source give for COc1cccc(NC(C(=O)c2c[nH]c3ccccc23)c2cccc3cnccc23)c1 (stereo not shown) [CPD-047] here?
Answer: 16 µM

Question: With COc1cccc(NC(C(=O)c2c[nH]c3ccccc23)c2ccc(-c3cncnc3)cc2)c1 (stereo not shown) [CPD-048] as the compound, how does the CC50 at 4 days read?
Answer: > 115 µM

Question: Which CC50 at 4 days does the source give for O=C(c1c[nH]c2ccccc12)C(Nc1ccc2nccnc2c1)c1ccccc1 (stereo not shown) [CPD-050] here?
Answer: 87 µM

Question: With CNS(=O)(=O)c1cccc(NC(C(=O)c2c[nH]c3ccccc23)c2ccccc2)c1 (stereo not shown) [CPD-052] as the compound, how does the CC50 at 4 days read?
Answer: 52 µM

Question: With COc1cccc(NC(C(=O)c2c[nH]c3ccccc23)c2cccc(-c3cncnc3)c2)c1 (stereo not shown) [CPD-054] as the compound, how does the CC50 at 4 days read?
Answer: > 115 µM

Question: With O=C(c1c[nH]c2ccccc12)C(Nc1cccc(-n2cncn2)c1)c1ccccc1 (stereo not shown) [CPD-058] as the compound, how does the CC50 at 4 days read?
Answer: 64 µM

Question: With O=C(c1c[nH]c2ccccc12)C(Nc1cccc(-c2cnco2)c1)c1ccccc1 (stereo not shown) [CPD-059] as the compound, how does the CC50 at 4 days read?
Answer: 16 µM

Question: Which CC50 at 4 days does the source give for COc1cccc(NC(C(=O)c2c[nH]c3ccccc23)c2ccc3c(c2)n(C)c(=O)n3C)c1 (stereo not shown) [CPD-060] here?
Answer: > 113 µM

Question: Which CC50 at 4 days does the source give for COc1cc(NC(C(=O)c2c[nH]c3ccccc23)c2ccc(C#N)cc2)ccn1 (stereo not shown) [CPD-061] here?
Answer: 59 µM

Question: Which CC50 at 4 days does the source give for COc1cc(C)nc(NC(C(=O)c2c[nH]c3ccccc23)c2ccccc2)n1 (stereo not shown) [CPD-062] here?
Answer: > 134 µM

Question: With COc1cccc(NC(C(=O)c2c[nH]c3ccccc23)c2ccc(O)nc2)c1 (stereo not shown) [CPD-063] as the compound, how does the CC50 at 4 days read?
Answer: > 134 µM

Question: Which CC50 at 4 days does the source give for COc1cc(NC(C(=O)c2c[nH]c3ccccc23)c2cn3ccccc3n2)ccn1 (stereo not shown) [CPD-064] here?
Answer: 72 µM

Question: Which CC50 at 4 days does the source give for NC(=O)c1cccc(NC(C(=O)c2c[nH]c3ccccc23)c2ccccc2)c1 (stereo not shown) [CPD-065] here?
Answer: 90 µM

Question: Which CC50 at 4 days does the source give for CCOC(=O)c1cccc(NC(C(=O)c2c[nH]c3ccccc23)c2ccccc2)c1 (stereo not shown) [CPD-068] here?
Answer: 12 µM

system: DENV-2 NGC; assay: Antiviral activity against DENV-2 NGC in Vero-B cells (viral RNA load by RT-qPCR); type: cell-based, Dengue virus; details: Dengue virus, DENV2, Vero B, DENV-2 in Vero-B cells; inhibition of viral RNA replication by 50% (Table 3)

Question: Which EC50 does the source give for CCOc1cccc(NC(C(=O)c2c[nH]c3ccccc23)c2ccccc2)c1 (stereo not shown) [CPD-003] here?
Answer: 0.11 µM

Question: Which EC50 does the source give for O=C(c1c[nH]c2ccccc12)C(Nc1cccc(Cl)c1)c1ccccc1 (stereo not shown) [CPD-006] here?
Answer: 0.75 µM

Question: For O=C(c1c[nH]c2ccccc12)C(Nc1ccc(F)c(F)c1)c1ccccc1 (stereo not shown) [CPD-007], which EC50 is on record?
Answer: 2.53 µM

Question: With O=C(c1c[nH]c2ccccc12)C(Nc1cccc(C(F)(F)F)c1)c1ccccc1 (stereo not shown) [CPD-009] as the compound, how does the EC50 read?
Answer: 0.66 µM

Question: With COc1cc(NC(C(=O)c2c[nH]c3ccccc23)c2ccccc2)cc(C(F)(F)F)c1 (stereo not shown) [CPD-014] as the compound, how does the EC50 read?
Answer: 0.02 µM

Question: Which EC50 does the source give for COc1cccc(N(C)C(C(=O)c2c[nH]c3ccccc23)c2ccccc2)c1 (stereo not shown) [CPD-018] here?
Answer: 0.37 µM

Question: With Cc1cc(NC(C(=O)c2c[nH]c3ccccc23)c2ccccc2)no1 (stereo not shown) [CPD-022] as the compound, how does the EC50 read?
Answer: 12.8 µM

Question: Which EC50 does the source give for COc1cccc(NC(C(=O)c2c[nH]c3ccccc23)c2cccs2)c1 (stereo not shown) [CPD-024] here?
Answer: 0.5 µM

Question: With COc1cccc(NC(C(=O)c2c[nH]c3ccccc23)c2nccn2C)c1 (stereo not shown) [CPD-026] as the compound, how does the EC50 read?
Answer: 17.2 µM

Question: For COc1cccc(NC(C(=O)c2c[nH]c3ccccc23)c2ncc[nH]2)c1 (stereo not shown) [CPD-028], which EC50 is on record?
Answer: 135 µM

Question: For O=C(c1c[nH]c2ccccc12)C(Nc1ccnc(O)c1)c1ccccc1 (stereo not shown) [CPD-031], which EC50 is on record?
Answer: 50.2 µM

Question: For O=C(c1c[nH]c2ccccc12)C(NCc1ccccn1)c1ccccc1 (stereo not shown) [CPD-032], which EC50 is on record?
Answer: 55.5 µM

Question: With O=C(c1c[nH]c2ccccc12)C(NCc1cccs1)c1ccccc1 (stereo not shown) [CPD-033] as the compound, how does the EC50 read?
Answer: 9.15 µM

Question: For O=C(c1c[nH]c2ccccc12)C(NCc1ccco1)c1ccccc1 (stereo not shown) [CPD-034], which EC50 is on record?
Answer: 46.5 µM

Question: For COc1cccc(NC(C(=O)c2c[nH]c3ccccc23)c2cccc(C#N)c2)c1 (stereo not shown) [CPD-041], which EC50 is on record?
Answer: 0.5 µM

Question: With COc1cccc(NC(C(=O)c2c[nH]c3ccccc23)c2cnn(C)c2)c1 (stereo not shown) [CPD-042] as the compound, how does the EC50 read?
Answer: 12.5 µM

Question: For CCc1cccc(NC(C(=O)c2c[nH]c3ccccc23)c2ccccc2)c1 (stereo not shown) [CPD-046], which EC50 is on record?
Answer: 0.65 µM

Question: For COc1cccc(NC(C(=O)c2c[nH]c3ccccc23)c2cccc3cnccc23)c1 (stereo not shown) [CPD-047], which EC50 is on record?
Answer: 0.42 µM

Question: For COc1cccc(NC(C(=O)c2c[nH]c3ccccc23)c2ccc(-c3cncnc3)cc2)c1 (stereo not shown) [CPD-048], which EC50 is on record?
Answer: 2.09 µM

Question: With O=C(c1c[nH]c2ccccc12)C(Nc1ccc2nccnc2c1)c1ccccc1 (stereo not shown) [CPD-050] as the compound, how does the EC50 read?
Answer: 2.4 µM

Question: With CNS(=O)(=O)c1cccc(NC(C(=O)c2c[nH]c3ccccc23)c2ccccc2)c1 (stereo not shown) [CPD-052] as the compound, how does the EC50 read?
Answer: 3.72 µM

Question: With COc1cccc(NC(C(=O)c2c[nH]c3ccccc23)c2cccc(-c3cncnc3)c2)c1 (stereo not shown) [CPD-054] as the compound, how does the EC50 read?
Answer: 2.09 µM

Question: With O=C(c1c[nH]c2ccccc12)C(Nc1cccc(-n2cncn2)c1)c1ccccc1 (stereo not shown) [CPD-058] as the compound, how does the EC50 read?
Answer: 2.85 µM

Question: With O=C(c1c[nH]c2ccccc12)C(Nc1cccc(-c2cnco2)c1)c1ccccc1 (stereo not shown) [CPD-059] as the compound, how does the EC50 read?
Answer: 1.25 µM

Question: Which EC50 does the source give for COc1cccc(NC(C(=O)c2c[nH]c3ccccc23)c2ccc3c(c2)n(C)c(=O)n3C)c1 (stereo not shown) [CPD-060] here?
Answer: 10.3 µM

Question: Which EC50 does the source give for COc1cc(NC(C(=O)c2c[nH]c3ccccc23)c2ccc(C#N)cc2)ccn1 (stereo not shown) [CPD-061] here?
Answer: 1.71 µM

Question: For COc1cc(C)nc(NC(C(=O)c2c[nH]c3ccccc23)c2ccccc2)n1 (stereo not shown) [CPD-062], which EC50 is on record?
Answer: 0.58 µM

Question: With COc1cccc(NC(C(=O)c2c[nH]c3ccccc23)c2ccc(O)nc2)c1 (stereo not shown) [CPD-063] as the compound, how does the EC50 read?
Answer: 14.3 µM

Question: For COc1cc(NC(C(=O)c2c[nH]c3ccccc23)c2cn3ccccc3n2)ccn1 (stereo not shown) [CPD-064], which EC50 is on record?
Answer: 8.75 µM

Question: With NC(=O)c1cccc(NC(C(=O)c2c[nH]c3ccccc23)c2ccccc2)c1 (stereo not shown) [CPD-065] as the compound, how does the EC50 read?
Answer: 12.1 µM

Question: For CCOC(=O)c1cccc(NC(C(=O)c2c[nH]c3ccccc23)c2ccccc2)c1 (stereo not shown) [CPD-068], which EC50 is on record?
Answer: 1.32 µM

Question: With COc1cccc(NC(C(=O)c2cn(CCN)c3ccccc23)c2ccccc2)c1 (stereo not shown) [CPD-105] as the compound, how does the EC50 read?
Answer: 1.23 µM

Question: Which EC50 does the source give for COc1cccc(NC(C(=O)c2cn(CC(=O)O)c3ccccc23)c2ccccc2)c1 (stereo not shown) [CPD-106] here?
Answer: 8.93 µM

Question: With CCOC(=O)Cn1cc(C(=O)C(Nc2cccc(OC)c2)c2ccccc2)c2ccccc21 (stereo not shown) [CPD-113] as the compound, how does the EC50 read?
Answer: 0.49 µM

Question: For COc1cccc(NC(C(=O)c2cn(CCN(C)C)c3ccccc23)c2ccccc2)c1 (stereo not shown) [CPD-114], which EC50 is on record?
Answer: 1.1 µM
